Experimental data as given in ChEMBL document CHEMBL1201862, “PubChem BioAssay data set” (2004).
The source made the active and inactive calls. For most assays here, no stated cut-off is given here; in the data, active = IC50 of 5 µM or less and inactive = more.

Assays:
[1] = HepG2 cell cytotoxicity, dose response, cytotoxicity control, ATP luminescence, dry powder, set 2 (AID 743129); type: functional, cell-based
[2] = HEK293T cell cytotoxicity, dose response, cytotoxicity control, plate reader, dry powder, set 10 (AID 743315); type: functional, cell-based; conditions: HEK293
[3] = SNU-C1 cell viability reduction, dose response, CellTiter-Glo luminescence (AID 1117323); type: functional, cell-based
[4] = RKO cell viability reduction, dose response, CellTiter-Glo luminescence (AID 1117322); type: functional
[5] = HCT116 cell viability decrease, GSK3B pretreatment – CellTiter-Glo, IC50, dose response (AID 1117339); type: functional; conditions: HCT-116
[6] = CellTiter-Glo luminescent dose response of DLD-1 viability loss (AID 1117352); type: functional
[7] = Concentration-dependent survival of SW480 colon cancer line, luminescence detection with CellTiter-Glo, half-maximal inhibitory concentration (AID 1117338); type: functional
[8] = cytotoxicity toward HCT116 cells – cell-based, CellTiter-Glo luminescence, IC50, dose response (AID 1117332); type: functional; conditions: HCT-116
[9] = cytotoxicity toward Colo320 cells – cell-based, CellTiter-Glo luminescence, IC50, dose response (AID 1117334); type: functional; conditions: COLO 320
[10] = cytotoxicity toward HT-29 cells – cell-based, CellTiter-Glo luminescence, IC50, dose response (AID 1117330); type: functional

In the case of `Cc1ccc(OCCn2c(SCCO)nc3ccccc32)c(C(C)C)c1`, the AC50 [1] is reported as 50.8 µM (active) and the AC50 [2] is reported as 31.2 µM (active).
In the case of `CC=CC1C(C(=O)OCc2c(F)c(F)c(COC)c(F)c2F)C1(C)C` (stereo not given), the IC50 [3] is reported as > 20 µM (inactive), the IC50 [4] is reported as > 20 µM (inactive) and the IC50 [5] is reported as > 20 µM (inactive). The IC50 [6] was > 20 µM (inactive), the IC50 [7] was > 20 µM (inactive) and the IC50 [8] was > 20 µM (inactive). For the same compound, the IC50 [9] was > 20 µM (inactive) and the IC50 [10] was > 20 µM (inactive).
